Test results: US6720330B2, “Somatostatin antagonists and agonists that act at the SST subtype 2 receptor” (Pfizer Inc., priority 2000, dated 2004)
Where no end group is shown, it is not given here.

Tested on: somatostatin receptor
Assay: Rat pituitary assay for somatostatin receptor antagonists (cAMP content of GH4C1 cells)
Type: cell-based
Conditions: GH4C1 pituitary cell line; 100 nM VIP, 10 nM somatostatin 14

Row | Compound | cAMP content of the GH4C1 cells
1 | C[C@H](N)C(=O)NCC(=O)N[C@H]1CSSC[C@@H](C(=O)O)NC(=O)[C@H](CO)NC(=O)[C@H]([C@@H](C)O)NC(=O)[C@H](Cc2ccccc2)NC(=O)[C@H]([C@@H](C)O)NC(=O)[C@H](CCCCN)NC(=O)[C@H](Cc2c[nH]c3ccccc23)NC(=O)[C@H](Cc2ccccc2)NC(=O)[C@H](Cc2ccccc2)NC(=O)[C@H](CC(N)=O)NC(=O)[C@H](CCCCN)NC1=O [somatostatin, somatostatin 14] | partial inhibition
2 | vasoactive intestinal peptide (HSDAVFTDNYTRLRKQMAVKKYLNSILN; ends and bridges not checked; UniProt P01282 125-152, looked up) [VIP, endogenous peptide that stimulates GH secretion] | increased cAMP content
